Assay results reported in PubChem BioAssay AID330 (DTP/NCI, 2004).
Several values for one entry are separate records, joined by “and”; a condition that tells them apart may be missing. Equal entries are not always repeated. Toxic doses and inconclusive results are not listed. How the source made its calls: active means survival T/C of 150% or more; inactive means T/C below 125% in these data. Peptide text beside a SMILES is read from it. * marks the point of attachment. Cbz = O=C(OCc1ccccc1)*

Test system: P388 leukemia ip, CD2F1 mice, survival T/C
Assay: NCI In Vivo Anticancer Drug Screen. Data for tumor model P388 Leukemia (intraperitoneal) in CD2F1 (CDF1) mice
Details: endpoint: median survival time, higher = longer survival
Outline: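 Mice carrying the transplanted tumor received test compound or vehicle. Survival was recorded in each group, and the value is the treated-group measurement divided by that of the vehicle-treated control group.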

[1] = dose: 100.0 mg/kg/injection, schedule: Q01DX009 (ip), vehicle: Klucel (hydroxypropylcellulose) (HPC)
[2] = dose: 200.0 mg/kg/injection, schedule: Q01DX009 (ip), vehicle: Klucel (hydroxypropylcellulose) (HPC)
[3] = dose: 50.0 mg/kg/injection, schedule: Q01DX005 (ip), vehicle: saline with Tween-80
[4] = dose: 50.0 mg/kg/injection, schedule: Q01DX009 (ip), vehicle: saline with Tween-80
[5] = dose: 100.0 mg/kg/injection, schedule: Q01DX005 (ip), vehicle: saline with Tween-80
[6] = dose: 200.0 mg/kg/injection, schedule: Q01DX005 (ip), vehicle: saline with Tween-80
[7] = dose: 100.0 mg/kg/injection, schedule: Q04DX003 (ip), vehicle: saline with Tween-80
[8] = dose: 400.0 mg/kg/injection, schedule: Q04DX003 (ip), vehicle: saline with Tween-80
[9] = dose: 50.0 mg/kg/injection, schedule: Q01DX005 (ip), vehicle: Klucel (hydroxypropylcellulose) (HPC)
[10] = dose: 100.0 mg/kg/injection, schedule: Q01DX005 (ip), vehicle: Klucel (hydroxypropylcellulose) (HPC)
[11] = dose: 200.0 mg/kg/injection, schedule: Q01DX005 (ip), vehicle: Klucel (hydroxypropylcellulose) (HPC)
[12] = dose: 50.0 mg/kg/injection, schedule: Q01DX009 (ip), vehicle: Klucel (hydroxypropylcellulose) (HPC)

Measured: T/C

O=C1CC(c2ccc(Cl)cc2)C(c2ccc(Cl)cc2)C1C(=O)OC1CCCCC1 (stereo not drawn)
inactive: dose: 1.56 mg/kg/injection, schedule: Q01DX001 (ip), vehicle: Klucel (hydroxypropylcellulose) (HPC) 110 % of control | dose: 3.13 mg/kg/injection, schedule: Q01DX001 (ip), vehicle: Klucel (hydroxypropylcellulose) (HPC) 107 % of control | dose: 6.25 mg/kg/injection, schedule: Q01DX001 (ip), vehicle: Klucel (hydroxypropylcellulose) (HPC) 107 % of control and 89 % of control

CC(=O)Oc1cc2c(=O)oc3c(OC(C)=O)c(OC(C)=O)c(OC(C)=O)c4c(=O)oc(c1OC(C)=O)c2c34
inactive: dose: 25.0 mg/kg/injection, schedule: Q01DX009 (ip), vehicle: saline 101 % of control | dose: 50.0 mg/kg/injection, schedule: Q01DX009 (ip), vehicle: saline 86 % of control | [1] 86 % of control | [2] 86 % of control | dose: 200.0 mg/kg/injection, schedule: Q01DX009 (ip), vehicle: saline 88 % of control | dose: 400.0 mg/kg/injection, schedule: Q01DX009 (ip), vehicle: saline 94 % of control

Cc1cc[n+](C2=C(Nc3ccc(Cl)cc3C)C(=O)c3ccccc3C2=O)cc1
inactive: dose: 12.5 mg/kg/injection, schedule: Q01DX005 (ip), vehicle: saline with Tween-80 109 % of control | dose: 25.0 mg/kg/injection, schedule: Q01DX005 (ip), vehicle: saline with Tween-80 109 % of control | [3] 119 % of control | dose: 60.0 mg/kg/injection, schedule: Q01DX005 (ip), vehicle: saline with Tween-80 121 % of control

CC1CNC(=O)NC1=O (stereo not drawn)
inactive: [4] 94 % of control | dose: 100.0 mg/kg/injection, schedule: Q01DX009 (ip), vehicle: saline with Tween-80 86 % of control

CN(C)/C=C\c1c([N+](=O)[O-])ncn1C
inactive: [3] 99 % of control | [5] 99 % of control | [6] 97 % of control

O=c1c2ccccc2sc2c1c(N(CCCl)CCCl)cc1ccccc12
inactive: dose: 25.0 mg/kg/injection, schedule: Q01DX005 (ip), vehicle: distilled water + Tween-80 92 % of control | dose: 50.0 mg/kg/injection, schedule: Q01DX005 (ip), vehicle: distilled water + Tween-80 94 % of control | dose: 100.0 mg/kg/injection, schedule: Q01DX005 (ip), vehicle: distilled water + Tween-80 94 % of control | dose: 200.0 mg/kg/injection, schedule: Q01DX005 (ip), vehicle: distilled water + Tween-80 95 % of control

CCC(=O)Nc1ncc([N+](=O)[O-])s1
inactive: dose: 25.0 mg/kg/injection, schedule: Q01DX009 (ip), vehicle: saline with Tween-80 94 % of control | [4] 86 % of control | dose: 200.0 mg/kg/injection, schedule: Q01DX009 (ip), vehicle: saline with Tween-80 86 % of control

CS(=O)(=O)NCCNS(C)(=O)=O
inactive: [7] 106 % of control | dose: 200.0 mg/kg/injection, schedule: Q04DX003 (ip), vehicle: saline with Tween-80 103 % of control | [8] 103 % of control

Cc1c2occc2cc2c1oc(=O)c1cnccc12
inactive: [9] 105 % of control | [10] 100 % of control | [11] 98 % of control

COc1cc[c]([Sn]([O][Sn]([Cl])([c]2ccc(OC)cc2)[c]2ccc(OC)cc2)[c]2ccc(OC)cc2)cc1
inactive: dose: 3.12 mg/kg/injection, schedule: Q01DX005 (ip), vehicle: Klucel (hydroxypropylcellulose) (HPC) 97 % of control | dose: 6.25 mg/kg/injection, schedule: Q01DX005 (ip), vehicle: Klucel (hydroxypropylcellulose) (HPC) 116 % of control and 92 % of control | dose: 12.5 mg/kg/injection, schedule: Q01DX005 (ip), vehicle: Klucel (hydroxypropylcellulose) (HPC) 111 % of control | dose: 25.0 mg/kg/injection, schedule: Q01DX005 (ip), vehicle: Klucel (hydroxypropylcellulose) (HPC) 120 % of control

CNC(=O)N(C)CN(C)C(=O)NC
inactive: [12] 100 % of control | [1] 106 % of control | [2] 107 % of control

O=C1CC(C2CCCCC2)C(=O)c2cc3cccnc3c(O)c21 (stereo not drawn)
inactive: [3] 101 % of control | [5] 99 % of control | [6] 93 % of control

Cc1nc2c(cnn2C)c(=O)n1C
inactive: [9] 111 % of control | [10] 111 % of control | [11] 111 % of control

CS(=O)(=O)CC1=NC(=N)N=C1CS(C)(=O)=O
inactive: dose: 60.0 mg/kg/injection, schedule: Q01DX005 (ip), vehicle: saline 100 % of control | dose: 120.0 mg/kg/injection, schedule: Q01DX005 (ip), vehicle: saline 110 % of control | dose: 240.0 mg/kg/injection, schedule: Q01DX005 (ip), vehicle: saline 96 % of control

CCCCCCCCCCCCCCCCCC(=O)NC[n+]1ccccc1
inactive: dose: 50.0 mg/kg/injection, schedule: Q04DX002 (ip), vehicle: Klucel (hydroxypropylcellulose) (HPC) 96 % of control | dose: 100.0 mg/kg/injection, schedule: Q04DX002 (ip), vehicle: Klucel (hydroxypropylcellulose) (HPC) 87 % of control | dose: 200.0 mg/kg/injection, schedule: Q04DX002 (ip), vehicle: Klucel (hydroxypropylcellulose) (HPC) 91 % of control

O=C(Nc1ccc(C2=NCCN2)c(O)c1)c1ccc(C(=O)Nc2ccc(C3=NCCN3)c(O)c2)cc1
inactive: [3] 99 % of control | [5] 103 % of control | [6] 107 % of control

O=C1C(CO)=C[C@H](O)[C@@]2(CO)O[C@@H]12
inactive: dose: 6.25 mg/kg/injection, schedule: Q04DX002 (ip), vehicle: saline 100 % of control | dose: 12.5 mg/kg/injection, schedule: Q04DX002 (ip), vehicle: saline 107 % of control | dose: 25.0 mg/kg/injection, schedule: Q04DX002 (ip), vehicle: saline 107 % of control | dose: 50.0 mg/kg/injection, schedule: Q04DX002 (ip), vehicle: saline 100 % of control | dose: 100.0 mg/kg/injection, schedule: Q04DX002 (ip), vehicle: saline 121 % of control

CCNC(C)(C)C(SS)c1ccc(C(F)(F)F)cc1 (stereo not drawn)
inactive: dose: 12.5 mg/kg/injection, schedule: Q04DX003 (ip), vehicle: saline with Tween-80 100 % of control | dose: 25.0 mg/kg/injection, schedule: Q04DX003 (ip), vehicle: saline with Tween-80 110 % of control | dose: 50.0 mg/kg/injection, schedule: Q04DX003 (ip), vehicle: saline with Tween-80 110 % of control | [7] 100 % of control | [8] 109 % of control

O=c1[nH]cnc2ncccc12
inactive: dose: 12.5 mg/kg/injection, schedule: Q01DX009 (ip), vehicle: Klucel (hydroxypropylcellulose) (HPC) 104 % of control | dose: 25.0 mg/kg/injection, schedule: Q01DX009 (ip), vehicle: Klucel (hydroxypropylcellulose) (HPC) 110 % of control | [12] 112 % of control | [1] 87 % of control

CC(C)C(NC(=O)C(Cc1cnc[nH]1)NC(=O)OCc1ccccc1)C(=O)O (stereo not drawn) (Cbz-His-Val-OH; configuration not given here)
inactive: [9] 101 % of control | [10] 96 % of control | [11] 100 % of control

Cc1cc(C)n(C2=NS(=O)(=O)c3ccccc3N2c2ccccc2)n1
inactive: dose: 100.0 mg/kg/injection, schedule: Q01DX001 (ip), vehicle: saline with Tween-80 102 % of control | dose: 200.0 mg/kg/injection, schedule: Q01DX001 (ip), vehicle: saline with Tween-80 98 % of control | dose: 400.0 mg/kg/injection, schedule: Q01DX001 (ip), vehicle: saline with Tween-80 97 % of control
